Literature values, collected in patent US20090285770A1, “Topical Compositions for Promoting Homeostasis of the Skin” (L'Oreal, priority 2005, published 2009).
Read-outs that look alike come from different tables or passages of the source. Ends that are not written are not given here.

What was measured:
[1] = system: P1 integrins; details: applied to skin ex vivo
[2] = system: β1 integrins; details: cells in culture
[3] = system: β1 integrins
[4] = system: (6 integrins); details: fibroblasts and keratinocytes in culture
[5] = system: α2, α3, α6, αv and β1 integrins; details: keratinocytes in culture or reconstructed skins

Question: For “GPQGPQ [COLLAXYL, collagen mimetic hexapeptide sold by Vincience]”, which “expression of P1 integrins” value [1] is on record?
Answer: stimulates the expression of P1 integrins

Question: Which “expression of β1 integrins” value [2] does the source give for “KLDAPT [VINCI 02, fibronectin mimetic hexapeptide sold by Vincience]” here?
Answer: stimulates the expression of β1 integrins

Question: For “RDFTKATNIRLRFLR [VINCI 01, laminin mimetic oligopeptide sold by Vincience]”, which “expression of β1 integrins” value [3] is on record?
Answer: stimulates the expression of β1 integrins

Question: For SERILESINE, which “expression of (6 integrins)” value [4] is on record?
Answer: increasing the expression of (6 integrins

Question: For copper gluconate, which “expression of integrins, in particular the α2, α3, α6, αv and β1 integrins” value (“expression of integrins” below) [5] is on record?
Answer: capable of increasing the expression of integrins

Question: With manganese gluconate as the substance, how does the “expression of integrins” value [5] read?
Answer: capable of increasing the expression of integrins

Question: With zinc gluconate as the substance, how does the “expression of integrins” value [5] read?
Answer: capable of increasing the expression of integrins
